Earlier results on 2 molecules are cited in patent publication US20140213605A1, “METHODS FOR TREATING EYE DISORDERS USING OPIOID RECEPTOR ANTAGONISTS” (priority 2013, published 2014).

Molecules are shown by their SMILES.

For data set [1] the following is noted: in vivo.
The test system of data set [2] is rat cornea.

Consider `Oc1ccc2c3c1O[C@H]1[C@H](O)CC[C@@]4(O)[C@@H](C2)N(CC2CC2)CC[C@]314` [6-β-naltrexol], for which the “Bound to plasma protein” value in data set [1] is “Approximately 20%”.

As to `O=C1CC[C@@]2(O)[C@H]3Cc4ccc(O)c5c4[C@@]2(CCN3CC2CC2)[C@H]1O5` [Naltrexone], the “Effect on incidence of re-epithelialization of the rat cornea” value in data set [2] (systemically administered) is recorded as “markedly influenced the incidence of re-epithelialization”. Besides, the “Effect on re-epithelialization of the rat cornea” value in data set [2] (topical application in sterile water) is on record as “not effective”. For the same molecule, in data set [1], the Excreted unchanged entry is on record as “Less than 1%”.
